According to patent US20100063020A1, “ORAL PHARMACEUTICAL FORMULATIONS AND METHODS FOR PRODUCING AND USING SAME” (priority 2004, published 2010):
“And” between values parts separate entries of the source, which are not always exact repeats. Equal entries are not always repeated.

Assay: Absolute oral bioavailability of 17-AAG lipid complex formulation in female rats
Type: in vivo, Sprague-Dawley rats
Conditions: rat; for Apparent Absolute Bioavailability: oral 50 mg/kg vs intravenous 10 mg/kg
Procedure: Female Sprague-Dawley rats were administered a phospholipid complex formulation of the low melt form of 17-AAG by oral gavage or as intravenous infusion (tail vein). Blood samples were collected prior to dosing and up to 6 hrs post dosing.
% F=[(Oral AUC(0-6h)×I.V. Dose)/(I.V. AUC(0-6h)×Oral Dose)]*100.
Blood samples (n=11) were collected via the jugular vein catheter prior to dosing and up to 6 hrs post dosing. The blood was allowed to clot at room temperature for approximately 20 minutes and then placed on ice until centrifugation at 10,000×G for 10 minutes. Serum was collected into polypropylene tubes and frozen at −80° C. until analysis.

[1] = intravenous 10 mg/kg, individual animal, 10 mg/kg
[2] = intravenous 10 mg/kg, metabolite 17-AG, individual animal, 10 mg/kg
[3] = intravenous 10 mg/kg, metabolite 17-AG, mean n=3
[4] = oral 50 mg/kg, individual animal, 50 mg/kg
[5] = oral 50 mg/kg, metabolite 17-AG, individual animal, 50 mg/kg

Q: With `C=CCNC1=C2C[C@@H](C)C[C@H](OC)[C@H](O)[C@@H](C)/C=C(\C)[C@H](OC(N)=O)[C@@H](OC)/C=C\C=C(/C)C(=O)NC(=CC1=O)C2=O` [Compound 17-AAG, 17-allylamino-17-demethoxygeldanamycin] as the compound, how does the “17-AAG AUC(0-6)” value [1] read?
A: The value was 172 µg·min/mL and 161 µg·min/mL and 135 µg·min/mL.

Q: And the “17-AAG Cmax” value [1]?
A: The value was 8700 ng/mL and 8000 ng/mL and 7000 ng/mL.

Q: What about the “17-AAG AUC(0-6)” value (intravenous 10 mg/kg, mean n=3) of the same compound?
A: Its value is 156 µg·min/mL.

Q: What about the “17-AAG Cmax” value (intravenous 10 mg/kg, mean n=3) of the same compound?
A: Its value is 7900 ng/mL.

Q: And the “17-AG AUC(0-6)” value [2]?
A: The value was 17 µg·min/mL and 25 µg·min/mL and 37 µg·min/mL.

Q: And the “17-AG Cmax” value [2]?
A: The value was 300 ng/mL and 200 ng/mL.

Q: And the “17-AG AUC(0-6)” value [3]?
A: The value was 26 µg·min/mL.

Q: What about the “17-AG Cmax” value [3] of the same compound?
A: The value was 200 ng/mL.

Q: What about the “Apparent Absolute Bioavailability” value (individual animal) of the same compound?
A: Its value is 160% and 129% and 39%.

Q: What about the “Apparent Absolute Bioavailability” value (mean n=3) of the same compound?
A: The value was 109±63%.

Q: What about the “17-AAG mean serum concentration six hours post oral dosing” value (oral 50 mg/kg, 6 h) of the same compound?
A: Its value is 1.6 ± 0.8 µg/mL.

Q: What about the “17-AG mean serum concentration six hours post oral dosing” value (oral 50 mg/kg, 6 h, metabolite 17-AG) of the same compound?
A: The value was 0.6 ± 0.1 µg/mL.

Q: And the “17-AAG AUC(0-6)” value [4]?
A: The value was 1248 µg·min/mL and 1003 µg·min/mL and 305 µg·min/mL.

Q: And the “17-AAG Cmax” value [4]?
A: Its value is 5700 ng/mL and 4700 ng/mL and 1200 ng/mL.

Q: And the “17-AAG AUC(0-6)” value (oral 50 mg/kg, mean n=3)?
A: Its value is 852 µg·min/mL.

Q: What about the “17-AAG Cmax” value (oral 50 mg/kg, mean n=3) of the same compound?
A: The value was 3900 ± 2400 ng/mL.

Q: What about the “17-AG AUC(0-6)” value [5] of the same compound?
A: The value was 252 µg·min/mL and 238 µg·min/mL and 156 µg·min/mL.

Q: What about the “17-AG Cmax” value [5] of the same compound?
A: The value was 1200 ng/mL and 900 ng/mL.

Q: And the “17-AG AUC(0-6)” value (oral 50 mg/kg, metabolite 17-AG, mean n=3)?
A: Its value is 215 µg·min/mL.

Q: What about the “17-AG Cmax” value (oral 50 mg/kg, metabolite 17-AG, mean n=3, 50 mg/kg) of the same compound?
A: Its value is 1000 ng/mL.
